Assay results reported in ChEMBL document CHEMBL4020847, “Discovery of an Orally Bioavailable Inhibitor of Defective in Cullin Neddylation 1 (DCN1)-Mediated Cullin Neddylation” (J Med Chem, 2018).
One block for each compound: values may come before it.

Assays:
[1] = Half life in mouse liver microsomes at 0.8 uM by LC-MS/MS analysis; type: ADME, microsome
DCN1-like protein 1 = DCN1-like protein 1 (Homo sapiens, UniProt Q96GG9)
Description: Inhibition of biotin-labeled DCN1 (unknown origin) assessed as reduction in protein interaction with Ac-UBE2M12-AlexaFluor488 after 1 hr by TR-FRET assay

Liver [2] = assay: Drug level in mouse liver microsomes treated with 1-benzyl-1-(1-(cyclopropylmethyl)piperidin-4-yl)-3-(3-(trifluoromethyl)phenyl)urea at 0.8 uM by LC-MS/MS analysis; type: ADME, microsome
Mus musculus [3] = assay: Toxicity in mouse at 200 mg/kg, po bid for 14 days; type: organism-based; conditions: in vivo, 336 h
[4] = Half life in mouse at 1 mg/kg, iv administered as single dose; type: ADME, organism-based; conditions: in vivo
Mus musculus [5] = assay: Toxicity in mouse assessed as weight loss at 200 mg/kg, po qd for 3 days; type: organism-based; conditions: in vivo, 72 h
[6] = Plasma concentration in mouse at 200 mg/kg, po bid for 14 days measured after 1 hr; type: ADME, organism-based
Mus musculus [7] = assay: AUClast in mouse at 50 to 200 mg/kg, po administered as single dose; type: ADME, organism-based; conditions: in vivo
[8] = Intrinsic clearance in mouse liver microsomes at 0.8 uM by LC-MS/MS analysis; type: ADME, microsome; conditions: read-out: CLH
[9] = Half life in mouse at 100 mg/kg, po administered as single dose; type: ADME, organism-based; conditions: in vivo
[10] = Clearance in mouse at 1 mg/kg, iv administered as single dose; type: ADME, organism-based; conditions: in vivo
[11] = Plasma concentration in mouse at 200 mg/kg, po qd for 14 days measured after 1 hr; type: ADME, organism-based
Mus musculus [12] = assay: Toxicity in mouse assessed as weight loss at 200 mg/kg, po qd for 5 to 14 days; type: organism-based; conditions: in vivo
[13] = Plasma concentration in mouse at 200 mg/kg, po administered as singe dose measured after 1 hr; type: ADME, organism-based
Mus musculus [14] = assay: Volume of distribution in mouse at 0.5 to 1.5 mg/kg, iv administered as single dose; type: ADME, organism-based; conditions: in vivo
Mus musculus [15] = assay: Toxicity in mouse at 50 to 200 mg/kg, po administered as single dose up to 48 hrs; type: organism-based; conditions: in vivo
Mus musculus [16] = assay: Cmax in mouse at 50 to 200 mg/kg, po administered as single dose; type: ADME, organism-based; conditions: in vivo
[17] = Clearance in mouse at 100 mg/kg, po administered as single dose; type: ADME, organism-based; conditions: in vivo
Mus musculus [18] = assay: Toxicity in mouse at 0.5 to 1.5 mg/kg, iv administered as single dose up to 48 hrs; type: organism-based; conditions: in vivo
Mus musculus [19] = assay: Oral bioavailability in mouse at 50 mg/kg administered as single dose; type: ADME, organism-based; conditions: in vivo
Mus musculus [20] = assay: Toxicity in mouse at 200 mg/kg, po qd for 14 days; type: organism-based; conditions: in vivo, 336 h
Liver [21] = assay: Drug metabolism in mouse liver microsomes assessed as aromatic ring oxidation at 0.8 uM by LC-MS/MS analysis; type: ADME, microsome
Liver [22] = assay: Drug metabolism in mouse liver microsomes assessed as 1-benzyl-1-(piperidin-4-yl)-3-(3-(trifluoromethyl)phenyl)urea formation at 0.8 uM by LC-MS/MS analysis; type: ADME, microsome

Sequence of DCN1-like protein 1 (Q96GG9 whole entry): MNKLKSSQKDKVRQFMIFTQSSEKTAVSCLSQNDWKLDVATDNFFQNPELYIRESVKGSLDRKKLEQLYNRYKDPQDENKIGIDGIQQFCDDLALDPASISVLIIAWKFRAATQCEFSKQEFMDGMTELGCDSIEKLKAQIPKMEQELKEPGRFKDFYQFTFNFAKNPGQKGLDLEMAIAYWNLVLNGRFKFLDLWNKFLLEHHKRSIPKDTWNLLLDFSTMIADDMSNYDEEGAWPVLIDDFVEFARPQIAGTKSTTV

- half-life at 0.8 µM [1]: 10.2 min
SMILES: CCCN1CCC(N(Cc2ccccc2)C(=O)Nc2cccc(C(F)(F)F)c2)CC1

- half-life at 0.8 µM [1]: 22.7 min
SMILES: CCCC(C)N1CCC(N(Cc2ccccc2)C(=O)Nc2ccc(Cl)c([N+](=O)[O-])c2)CC1 (stereo not drawn)

- half-life at 0.8 µM [1]: 16.3 min
SMILES: CCCN1CCC(N(Cc2cc(F)cc(C(F)(F)F)c2)C(=O)Nc2cccc(C(F)(F)F)c2)CC1

- half-life at 0.8 µM [1]: ≤ 6 min
SMILES: CCCCN1CCC(N(Cc2ccccc2)C(=O)Nc2cccc(Cl)c2)CC1

- half-life at 0.8 µM [1]: 84 min
SMILES: CCCCN1CCC(N(Cc2ccccc2)C(=O)Nc2ccc(F)c(Cl)c2)CC1

- half-life [4]: 216 min
- concentration at 1 h [6]: 3300 nM
- AUClast (Mus musculus [7]): 3.4 to 17.1 µM·h
- CLint scaled at 0.8 µM [8]: 25 to 25.6 mL/min/kg
- half-life at 0.8 µM [1]: 126 to 127 min
- half-life [9]: 252 min
- clearance [10]: 283 mL/min/kg
- concentration at 1 h [11]: 2400 nM
- concentration at 1 h [13]: 3000 nM
- Vd (Mus musculus [14]): 87.3 to 176 L/kg
- Cmax (Mus musculus [16]): 1500 to 3000 nM
- CL/F [17]: 367 mL/min/kg
- F (Mus musculus [19]): 88%
SMILES: CCCCN1CCC(N(Cc2ccccc2)C(=O)Nc2ccc(Cl)c(Cl)c2)CC1
- Activity (Mus musculus [3]): Non-Toxic
- Activity (Mus musculus [5]): 3 to 5%
- Activity (Mus musculus [12]): Non-Toxic
- Activity (Mus musculus [15]): Non-Toxic
- Activity (Mus musculus [18]): Non-Toxic
- Activity (Mus musculus [20]): Non-Toxic

- half-life at 0.8 µM [1]: 146 min
SMILES: CCCCN1CCC(N(Cc2ccccc2)C(=O)Nc2cc(F)cc(C(F)(F)F)c2)CC1

- Drug metabolism (Liver [21]): Metabolite_Detected
- Drug metabolism (Liver [22]): Metabolite_Detected
- half-life at 0.8 µM [1]: < 6 min
SMILES: O=C(Nc1cccc(C(F)(F)F)c1)N(Cc1ccccc1)C1CCN(CC2CC2)CC1

- half-life at 0.8 µM [1]: 11.8 min
SMILES: CCCC(C)N1CCC(N(Cc2ccccc2)C(=O)Nc2cc(F)cc(C(F)(F)F)c2)CC1 (stereo not drawn)

- CLint scaled at 0.8 µM [8]: ≥ 500 mL/min/kg
- half-life at 0.8 µM [1]: ≤ 6 min
SMILES: CCCCN1CCC(N(Cc2ccccc2)C(=O)Nc2cc(F)cc(F)c2)CC1

- half-life at 0.8 µM [1]: 9 min
SMILES: CCCC(C)N1CCC(N(Cc2ccccc2)C(=O)Nc2ccc(C)c(F)c2)CC1 (stereo not drawn)

- half-life at 0.8 µM [1]: 11.3 min
SMILES: CCCC(C)N1CCC(N(Cc2ccccc2)C(=O)Nc2ccc(F)c(F)c2)CC1 (stereo not drawn)

- half-life at 0.8 µM [1]: 8.22 min
SMILES: CCCN1CCC(N(Cc2ccco2)C(=O)Nc2cccc(C(F)(F)F)c2)CC1

- CLint scaled at 0.8 µM [8]: ≥ 500 mL/min/kg
- half-life at 0.8 µM [1]: ≤ 6 min
SMILES: CCCC(C)N1CCC(N(Cc2ccccc2)C(=O)Nc2cc(F)cc(Cl)c2)CC1 (stereo not drawn)

- half-life at 0.8 µM [1]: ≤ 6 min
SMILES: CCCC(C)N1CCC(N(Cc2ccccc2)C(=O)Nc2ccc3c(c2)CCC3)CC1 (stereo not drawn)

Further lines, the compound ahead of its results:

SMILES: Cn1ccc2cc(CN3CCC(N(Cc4ccccc4)C(=O)Nc4cc(F)cc(C(F)(F)F)c4)CC3)ccc21
- IC50 (DCN1-like protein 1): > 21 µM

SMILES: Cn1ccnc1CN1CCC(N(Cc2ccccc2)C(=O)Nc2cc(F)cc(C(F)(F)F)c2)CC1
- IC50 (DCN1-like protein 1): > 28 µM

SMILES: O=C(Nc1cc(F)cc(C(F)(F)F)c1)N(Cc1ccccc1)C1CCN(Cc2ccncc2)CC1
- IC50 (DCN1-like protein 1): > 28 µM

SMILES: O=C(Nc1cccc(C(F)(F)F)c1)N(Cc1ccccc1)C1CCNCC1
- Drug metabolism (Liver [2]): Metabolite_Detected

SMILES: CCCC(C)N1CCC(N(Cc2ccccc2)C(=O)Nc2ccc(F)c(C(F)(F)F)c2)CC1 (stereo not drawn)
- IC50 (DCN1-like protein 1): 0.29 µM
- half-life at 0.8 µM [1]: 23.6 min

SMILES: CCCCN1CCC(N(Cc2ccccc2)C(=O)Nc2ccc(C)c(Cl)c2)CC1
- IC50 (DCN1-like protein 1): 0.325 µM
- half-life at 0.8 µM [1]: 17.2 min

SMILES: CCCCN1CCC(N(Cc2ccccc2)C(=O)Nc2ccc(F)c(C(F)(F)F)c2)CC1
- IC50 (DCN1-like protein 1): 0.612 µM
- half-life at 0.8 µM [1]: 116 min

SMILES: CCCC(C)N1CCC(N(Cc2ccccc2)C(=O)Nc2cccc(Cl)c2)CC1 (stereo not drawn)
- IC50 (DCN1-like protein 1): 0.304 µM
- half-life at 0.8 µM [1]: ≤ 6 min

SMILES: CCCC(C)N1CCC(N(Cc2ccccc2)C(=O)Nc2ccc(I)cc2)CC1 (stereo not drawn)
- IC50 (DCN1-like protein 1): 0.054 µM
- half-life at 0.8 µM [1]: 29.9 min

SMILES: O=C(Nc1cc(F)cc(C(F)(F)F)c1)N(Cc1ccccc1)C1CCN(Cc2nc3ccccc3s2)CC1
- IC50 (DCN1-like protein 1): > 25 µM

SMILES: CCCC(C)N1CCC(N(Cc2ccccc2)C(=O)Nc2ccc(C)cc2)CC1 (stereo not drawn)
- IC50 (DCN1-like protein 1): 0.356 µM
- half-life at 0.8 µM [1]: 9.6 min

SMILES: CCCC(C)N1CCC(N(Cc2ccccc2)C(=O)Nc2ccc(C(C)(C)C)cc2)CC1 (stereo not drawn)
- IC50 (DCN1-like protein 1): 1.72 µM

SMILES: CCCC(C)N1CCC(N(Cc2ccccc2)C(=O)Nc2cc(Cl)ccc2F)CC1 (stereo not drawn)
- IC50 (DCN1-like protein 1): > 34 µM
- half-life at 0.8 µM [1]: 14.9 min

SMILES: O=C(Nc1cc(F)cc(C(F)(F)F)c1)N(Cc1ccccc1)C1CCN(Cc2ccc(Cc3ccccc3)cc2)CC1
- IC50 (DCN1-like protein 1): > 22 µM
